From US9340554B2, “IRAK inhibitors and uses thereof” (Nimbus Iris, Inc., priority 2011, dated 2016)

Target: T1, IRAK4 (Homo sapiens, UniProt Q9NWZ3)
T1 construct: purchased CARNA Bioscience 09-145
T1 sequence (Q9NWZ3 1-460): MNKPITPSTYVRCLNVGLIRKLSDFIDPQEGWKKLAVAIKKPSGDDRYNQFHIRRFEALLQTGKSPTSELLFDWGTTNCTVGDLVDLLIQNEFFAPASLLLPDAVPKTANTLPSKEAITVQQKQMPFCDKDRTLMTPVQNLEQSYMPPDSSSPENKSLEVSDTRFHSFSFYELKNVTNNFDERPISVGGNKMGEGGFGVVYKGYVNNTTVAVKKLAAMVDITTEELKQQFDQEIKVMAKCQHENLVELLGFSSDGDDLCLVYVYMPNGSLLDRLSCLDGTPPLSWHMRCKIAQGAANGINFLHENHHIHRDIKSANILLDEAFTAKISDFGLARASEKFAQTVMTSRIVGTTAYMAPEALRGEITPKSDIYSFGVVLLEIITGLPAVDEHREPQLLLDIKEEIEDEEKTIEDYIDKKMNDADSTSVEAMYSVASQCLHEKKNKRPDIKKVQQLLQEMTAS
Assay: IRAK-4 activity inhibition assay (Caliper, Peptide 8, 37 μM ATP)
Format: biochemical
Settings: 3.5 nM IRAK4, 1.5 μM Peptide 8, 37 μM ATP, 28° C. 40 minutes; read-out: IRAK-4 activity inhibition IC50
Method: A 1× kinase base buffer was prepared from 50 mM HEPES, pH 7.5 and 0.0015% Brij-35. A stop buffer was prepared from 100 mM HEPES, pH 7.5, 0.015% Brij-35, 0.2% Coating Reagent #3, and 50 mM EDTA.
Test compound was diluted to 50× of the final desired highest inhibitor concentration in reaction by 100% DMSO. 100 ul of this compound dilution was transferred to a well in a 96-well plate.
Test compound was serially diluted by transferring 30 μl to 60 μl of 100% DMSO in the next well and so forth for a total of 10 concentrations. 100 μl of 100% DMSO was added to two empty wells for no compound control and no enzyme control in the same 96-well plate.
A new 96-well plate was marked as intermediate plate. 5 μl of compound serial dilution was transferred from source plate to the corresponding wells of the intermediate plate. 45 μl of 1× kinase base buffer (KB buffer) was added to each well of the intermediate plate. The intermediate plate was placed for 10 min on a shaker.
5 μl of each well was transferred from the 96-well intermediate plate to a 384-well plate in duplicates. […] A2 of the 96-well plate is transferred to A3 and A4 of the 384-well plate, and so on.
IRAK4 and DTT in 1× kinase base buffer was added.
Assay plate already contained 5 μl of compound in 10% DMSO. Added 10 μl of 2.5× enzyme solution to each well of the 384-well assay plate, except no enzyme control wells. […] Added 10 μl of 1× kinase base buffer to no enzyme control wells in the assay plate. Incubated at room temperature for 10 min.
Added 10 μl of 2.5× peptide solution to each well of the 384-well assay plate. […] Incubated at 28° C. for 40 minutes. Added 25 μl of stop buffer to stop reaction. Collected data on Caliper.
Copied conversion % data from Caliper program. Converted conversion % values to percent inhibition values. Percent inhibition=(max−conversion %)/(max−min)*100, where “max” means the conversion % of DMSO control and “min” means the conversion % of no enzyme control.
The compound numbers correspond to the compound numbers in Table 1. […] “NA” stands for “not assayed.”

Compound | IC50 [µM]
CN[C@H]1CC[C@H](Nc2ncnc3sc4c(c23)CCCC4)CC1 [Compound I-53, trans-N^1-methyl-N4-(5,6,7,8-tetrahydrobenzo[4,5]thieno[2,3-d]pyrimidin-4-yl)cyclohexane-1,4-diamine] | < 5
Cc1sc2ncnc(N[C@H]3CC[C@H](N)CC3)c2c1C [Compound I-57, trans-N^1-(5,6-dimethylthieno[2,3-d]pyrimidin-4-yl)cyclohexane-1,4-diamine] | < 5
c1nc(NCC2CCNCC2)c2c3c(sc2n1)CCC3 [Compound I-59] | 20 to 50
c1nc(OCC2CCNCC2)c2c3c(sc2n1)CCC3 [Compound I-60] | 5 to 20
N[C@H]1CC[C@H](Oc2ncnc3sc4c(c23)CCC4)CC1 [Compound I-61, trans-4-((6,7-dihydro-5H-cyclopenta[4,5]thieno[2,3-d]pyrimidin-4-yl)oxy)cyclohexanamine] | < 5
CNCC1CCN(c2ncnc3sc4c(c23)CCC4)CC1 [Compound I-62] | 5 to 20
NCC1CCN(c2ncnc3sc4c(c23)CCC4)CC1 [Compound I-63] | 5 to 20
CN1CCC(COc2ncnc3sc4c(c23)CCC4)CC1 [Compound I-64] | 20 to 50
O=C(O)CN[C@H]1CC[C@H](Nc2ncnc3sc4c(c23)CCC4)CC1 [Compound I-65, 2-((trans-4-((6,7-dihydro-5H-cyclopenta[4,5]thieno[2,3-d]pyrimidin-4-yl)amino)cyclohexyl)amino)acetic acid] | 5 to 20
CN[C@H]1CC[C@H](Oc2ncnc3sc4c(c23)CCC4)CC1 [Compound I-66, trans-4-((6,7-dihydro-5H-cyclopenta[4,5]thieno[2,3-d]pyrimidin-4-yl)oxy)-N-methylcyclohexanamine] | < 5
CN(C)[C@H]1CC[C@H](Oc2ncnc3sc4c(c23)CCC4)CC1 [Compound I-67, trans-4-((6,7-dihydro-5H-cyclopenta[4,5]thieno[2,3-d]pyrimidin-4-yl)oxy)-N,N-dimethylcyclohexanamine] | < 5
O=C(O)CN[C@H]1CC[C@H](Oc2ncnc3sc4c(c23)CCC4)CC1 [Compound I-68, 2-((trans-4-((6,7-dihydro-5H-cyclopenta[4,5]thieno[2,3-d]pyrimidin-4-yl)oxy)cyclohexyl)amino)acetic acid] | 5 to 20
CN(C)CC1CCN(c2ncnc3sc4c(c23)CCC4)CC1 [Compound I-69] | > 50
CN(Cc1c(F)cccc1Cl)[C@H]1CC[C@H](Nc2ncnc3sc4c(c23)CCC4)CC1 [Compound I-99, 1-N-[(2-chloro-6-fluorophenyl)methyl]-1-N-methyl-4-N-[7-thia-9,11-diazatricyclo[6.4.0.0^[2,6]]dodeca-1(8),2(6),9,11-tetraen-12-yl]cyclohexane-1,4-diamine] | < 5
CN(Cc1ccncc1Cl)[C@H]1CC[C@H](Nc2ncnc3sc4c(c23)CCC4)CC1 [Compound I-100, 1-N-[(3-chloropyridin-4-yl)methyl]-1-N-methyl-4-N-[7-thia-9,11-diazatricyclo[6.4.0.0^[2,6]]dodeca-1(8),2(6),9,11-tetraen-12-yl]cyclohexane-1,4-diamine] | < 5
CN(Cc1ccco1)[C@H]1CC[C@H](Nc2ncnc3sc4c(c23)CCC4)CC1 [Compound I-101, 1-N-(furan-2-ylmethyl)-1-N-methyl-4-N-[7-thia-9,11-diazatricyclo[6.4.0.0^[2,6]]dodeca-1(8),2(6),9,11-tetraen-12-yl]cyclohexane-1,4-diamine] | < 5
CN(C(=O)Cc1cccc(Cl)c1)[C@H]1CC[C@H](Nc2ncnc3sc4c(c23)CCC4)CC1 [Compound I-102, 2-(3-chlorophenyl)-N-methyl-N-[4-([7-thia-9,11-diazatricyclo[6.4.0.0^[2,6]]dodeca-1(8),2(6),9,11-tetraen-12-yl]amino)cyclohexyl]acetamide] | 20 to 50
CN(C(=O)Cc1ccccn1)[C@H]1CC[C@H](Nc2ncnc3sc4c(c23)CCC4)CC1 [Compound I-103, N-methyl-2-(pyridin-2-yl)-N-[4-([7-thia-9,11-diazatricyclo[6.4.0.0^[2,6]]dodeca-1(8),2(6),9,11-tetraen-12-yl]amino)cyclohexyl]acetamide] | 20 to 50
CN(Cc1ncccc1F)[C@H]1CC[C@H](Nc2ncnc3sc4c(c23)CCC4)CC1 [Compound I-104, 1-N-[(3-fluoropyridin-2-yl)methyl]-1-N-methyl-4-N-[7-thia-9,11-diazatricyclo[6.4.0.0^[2,6]]dodeca-1(12),2(6),8,10-tetraen-12-yl]cyclohexane-1,4-diamine] | < 5
CN(Cc1cnccn1)[C@H]1CC[C@H](Nc2ncnc3sc4c(c23)CCC4)CC1 [Compound I-105] | < 5

Second part, the compound after the results:

IC50 [µM] | Compound
< 5 | C[C@@H]1CCc2sc3ncnc(N[C@H]4CC[C@H](N)CC4)c3c2C1 [Compound I-48, trans-N^1-((R)-6-methyl-5,6,7,8-tetrahydrobenzo[4,5]thieno[2,3-d]pyrimidin-4-yl)cyclohexane-1,4-diamine]
< 5 | N[C@H]1CC[C@H](Nc2ncnc3sc4c(c23)CCCC4)CC1 [Compound I-49, trans-N^1-(5,6,7,8-tetrahydrobenzo[4,5]thieno[2,3-d]pyrimidin-4-yl)cyclohexane-1,4-diamine]
< 5 | CN(C)[C@H]1CC[C@H](Nc2ncnc3sc4c(c23)CCCC4)CC1 [Compound I-50, trans-N^1,N^1-dimethyl-N^4-(5,6,7,8-tetrahydrobenzo[4,5]thieno[2,3-d]pyrimidin-4-yl)cyclohexane-1,4-diamine]
< 5 | CC1CCc2sc3ncnc(N[C@H]4CC[C@H](N)CC4)c3c2C1 (stereo partly drawn) [Compound I-51, trans-N^1-(6-methyl-5,6,7,8-tetrahydrobenzo[4,5]thieno[2,3-d]pyrimidin-4-yl)cyclohexane-1,4-diamine]
< 5 | CN[C@H]1CC[C@H](Nc2ncnc3sc4c(c23)CC(C)CC4)CC1 (stereo partly drawn) [Compound I-52, trans-N^1-methyl-N4-(6-methyl-5,6,7,8-tetrahydrobenzo[4,5]thieno[2,3-d]pyrimidin-4-yl)cyclohexane-1,4-diamine]
< 5 | CC1CCc2sc3ncnc(N[C@H]4CC[C@H](N(C)C)CC4)c3c2C1 (stereo partly drawn) [Compound I-54, trans-N^1,N^1-dimethyl-N^4-(6-methyl-5,6,7,8-tetrahydrobenzo[4,5]thieno[2,3-d]pyrimidin-4-yl)cyclohexane-1,4-diamine]
< 5 | CCC1CCc2c(sc3ncnc(N[C@H]4CC[C@H](N(C)C)CC4)c23)C1 (stereo partly drawn) [Compound I-55, trans-N^1-(7-ethyl-5,6,7,8-tetrahydrobenzo[4,5]thieno[2,3-d]pyrimidin-4-yl)-N^4,N^4-dimethylcyclohexane-1,4-diamine]
< 5 | C[C@@H]1CCc2sc3ncnc(N[C@H]4CC[C@H](N(C)C)CC4)c3c2C1 [Compound I-56, trans-N^1,N^1-dimethyl-N^4-((R)-6-methyl-5,6,7,8-tetrahydrobenzo[4,5]thieno[2,3-d]pyrimidin-4-yl)cyclohexane-1,4-diamine]
< 5 | CCC1CCc2c(sc3ncnc(N[C@H]4CC[C@H](NC)CC4)c23)C1 (stereo partly drawn) [Compound I-58, trans-N1-(7-ethyl-5,6,7,8-tetrahydrobenzo[4,5]thieno[2,3-d]pyrimidin-4-yl)-N4-methylcyclohexane-1,4-diamine]
< 5 | CCN[C@H]1CC[C@H](Nc2ncnc3sc4c(c23)CCC4)CC1 [Compound I-70]
< 5 | CCN[C@H]1CC[C@H](Nc2ncnc3sc4c(c23)CCC4)CC1 [Compound I-71, trans-N^1-(6,7-dihydro-5H-cyclopenta[4,5]thieno[2,3-d]pyrimidin-4-yl)-N^4-ethylcyclohexane-1,4-diamine]
< 5 | CCN(CC)[C@H]1CC[C@H](Nc2ncnc3sc4c(c23)CCC4)CC1 [Compound I-72, trans-N^1-(6,7-dihydro-5H-cyclopenta[4,5]thieno[2,3-d]pyrimidin-4-yl)-N^4,N^4-diethylcyclohexane-1,4-diamine]
